Legend:
Sigma receptor = biological target: T1, Sigma receptor (Cavia porcellus, UniProt Q60492); experiment: Sigma Receptor Binding Assay; format: guinea pig (male Hartley), brain membranes; conditions: 1 nM (+)-[3H]SKF 10,047, guinea pig brain membranes, pH 7.4, 45 min room temperature; read-out: Receptor Binding Affinity Sigma (Ki class)
T1 construct: Brain membranes were prepared by the method of Tam; from tissue; host or cells: guinea pig whole brain membranes
Description: Male Hartley guinea pigs (250-300 g, Charles River) were sacrificed by decapitation. […] Whole brains were homogenized (20 sec.) in 10 vol (wt/vol) of ice-cold 0.34 M sucrose with a Brinkmann Polytron (setting 8). The homogenate was centrifuged at 920×g for 10 min. The supernatant was centrifuged at 47,000×g for 20 min. The resulting membrane pellet was resuspended in 10 vol (original wt/vol) of 50 mM Tris HCl (pH 7.4) and incubated at 37° C. for 45 min to degrade and dissociate bound endogenous ligands. The membranes were then centrifuged at 47,000×g for 20 min and resuspended in 50 mM Tris HCl (50 mL per brain).
After 45 rain of incubation at room temperature, samples were filtered rapidly through Whatman GF/C glass filters under negative pressure, and washed 3 times with ice-cold Tris buffer (5 mL).
IC50 s were calculated from log-logit plots. Apparent Ki s were calculated from the equation, Ki =IC50 /[1+(L/Kd)], where L is the concentration of radioligand and Kd is its dissociation constant.

[1] = system: isolation-induced aggression in mice; experiment: Isolation-Induced Aggression in Mice; format: in vivo, mouse (male Balb/c); conditions: for ED50: Mus musculus, po, 0.25 h, mice, p.o., 15 min after dosing, read-out: Inhibition of Isolation-induced Aggression (ED50 class); for inhibiting the isolation-induced aggressive behavior: statement on Table II
Description: Male Balb/c mice (Charles River) were used. […] Isolated mice failing to consistently attack an intruder were eliminated from the colony.
Drug testing was carried out by treating the isolated mice with test drugs or standards. Fifteen min after dosing with drugs by the oral route (p.o.), one isolated mouse was removed from its home cage and placed in the home cage of another isolate. Scoring was a yes or no response for each pair. A maximum of 3 min was allowed for an attack and the pair was separated immediately upon an attack. Selection of home cage and intruder mice was randomized for each test. Mice were treated and tested twice a week with at least a 2 day washout period between treatments.

Dopamine (D-2) receptor = biological target: T2, Dopamine (D-2) receptor (Cavia porcellus, UniProt H0VE83); experiment: Dopamine Receptor Binding; format: guinea pig, striatum membranes; conditions: 0.15 nM [3H]spiperone, guinea pig striatum, pH 7.7, 15 min 37° C.; read-out: Receptor Binding Affinity Dopamine (D-2) (Ki class)
T2 construct: Membranes were prepared from guinea pig striatum; from tissue; host or cells: guinea pig striatum membranes
T2 sequence (H0VE83 1-446): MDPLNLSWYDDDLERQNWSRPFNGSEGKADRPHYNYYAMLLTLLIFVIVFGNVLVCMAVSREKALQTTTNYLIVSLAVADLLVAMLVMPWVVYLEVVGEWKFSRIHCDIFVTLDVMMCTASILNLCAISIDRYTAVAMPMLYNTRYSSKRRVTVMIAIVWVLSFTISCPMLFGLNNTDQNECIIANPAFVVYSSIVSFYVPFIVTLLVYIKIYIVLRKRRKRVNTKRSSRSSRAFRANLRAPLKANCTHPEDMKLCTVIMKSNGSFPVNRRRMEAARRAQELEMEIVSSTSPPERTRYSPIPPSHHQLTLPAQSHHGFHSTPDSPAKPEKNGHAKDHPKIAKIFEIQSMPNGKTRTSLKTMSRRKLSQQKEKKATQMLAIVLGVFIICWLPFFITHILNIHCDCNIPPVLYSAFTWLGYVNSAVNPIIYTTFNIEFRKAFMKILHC
Description: Membranes were prepared from guinea pig striatum by the method described for sigma receptor binding. The membranes were then resuspended in 50 mM Tris HCl (9 mL per brain).
Nonspecific binding was measured in the presence of 100 nM (+)-butaclamol After 15 min of incubation at 37° C. samples were filtered rapidly through Whatman GF/C glass filters under negative pressure, and washed three times with ice-cold binding buffer (5 mL).

T1 sequence (Q60492 whole entry): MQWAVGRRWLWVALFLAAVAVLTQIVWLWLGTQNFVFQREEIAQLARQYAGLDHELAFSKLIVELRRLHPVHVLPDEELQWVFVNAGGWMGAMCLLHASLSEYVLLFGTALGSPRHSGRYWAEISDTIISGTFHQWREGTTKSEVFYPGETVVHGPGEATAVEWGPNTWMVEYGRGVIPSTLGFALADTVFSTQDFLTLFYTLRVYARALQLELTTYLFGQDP

| Structure (SMILES) | Ki (Sigma receptor) | ED50 [1] | inhibiting the isolation-induced aggressive behavior [1] | Ki (Dopamine (D-2) receptor) |
| --- | --- | --- | --- | --- |
| O=C1C2=C(CCCC2)CN1CC1CCN(CCc2ccccc2)CC1 [Example 6, 2,3,4,5,6,7-hexahydro-2-[[1-(2-phenylethyl)-4-piperidinyl]methyl]-1H-isoindol-1-one] | 31 to 100 nM | 21 to 70 mg/kg | potent activities | > 500 nM |
| O=C1[C@H]2CCCC[C@H]2C(=O)N1CC1CCN(CC2CCCCC2)CC1 [Example 15] | 1 to 30 nM |  | potent activities | > 500 nM |
| O=C1[C@H]2CCCC[C@H]2C(=O)N1CC1CCN(CCC2CCCCC2)CC1 [Example 17] | 1 to 30 nM |  | potent activities | > 500 nM |
| CC1CC[C@@H]2C(=O)N(CC3CCN(CCc4ccccc4)CC3)C(=O)[C@@H]2C1 (some centres unmarked) [Example 23] | 1 to 30 nM | 21 to 70 mg/kg |  | > 500 nM |
| O=C1c2ccccc2C(=O)N1CC1CCN(Cc2ccccc2)CC1 [Example 34] | 1 to 30 nM | 11 to 20 mg/kg |  | > 500 nM |
| O=C1c2ccccc2C(=O)N1CCC1CCN(CCc2ccccc2)CC1 [Example 39] | 1 to 30 nM | 21 to 70 mg/kg |  | > 500 nM |
| O=C1C2C(c3ccccc3)CCC(c3ccccc3)C2C(=O)N1CC1CCN(CCc2ccccc2)CC1 (centres unmarked) [Example 68] | 101 to 500 nM |  |  | > 500 nM |
| O=C1C2C3C=CC(C4CC34)C2C(=O)N1CC1CCN(CCc2ccccc2)CC1 (centres unmarked) [Example 69] | 1 to 30 nM |  |  | > 500 nM |
| CC1C2=C(CCCC2)C(=O)N1CC1CCN(CCc2ccccc2)CC1 (centres unmarked) [Example 70, 2,3,4,5,6,7, -hexahydro-2-[[1-(2-phenylethyl)-4-piperidinyl]methyl]-3-methyl-1H-isoindol-1-one] | 101 to 500 nM |  |  | 101 to 500 nM |
| O=C1C2=C(CN1CC1CCN(CCc3ccccc3)CC1)C1CCCC2CC1 (centres unmarked) [Example 71] | 1 to 30 nM |  |  | > 500 nM |
| O=C1C2C3CCC(C4CCC43)C2C(=O)N1CC1CCN(CCc2ccccc2)CC1 (centres unmarked) [Example 72] | 1 to 30 nM |  |  | 101 to 500 nM |
| O=C1C2C3CCCC(CC3)C2C(O)N1CC1CCN(CCc2ccccc2)CC1 (centres unmarked) [Example 73] | 31 to 100 nM |  |  | > 500 nM |
| O=C1[C@H]2CCCC[C@H]2C(=O)N1CC1(O)CCN(CCc2ccccc2)CC1 [Example 74] | 101 to 500 nM |  |  | > 500 nM |
| O=C1C2C3C=CC(CCC3)C2C(=O)N1CC1(O)CCN(CCc2ccccc2)CC1 (centres unmarked) [Example 75] | 1 to 30 nM |  |  | > 500 nM |
| O=C1C2C3C=CC(C4C=CC43)C2C(=O)N1CC1(O)CCN(CCc2ccccc2)CC1 (centres unmarked) [Example 76] | 31 to 100 nM |  |  | > 500 nM |
| O=C1C2C3C=CC(C4CCC34)C2C(=O)N1CC1(O)CCN(CCc2ccccc2)CC1 (centres unmarked) [Example 77] | 31 to 100 nM |  |  | > 500 nM |
| CCCC1C2c3ccccc3C=CC2C(=O)N1CCC1CCN(CCc2ccccc2)CC1 (centres unmarked) [Example 86] | 101 to 500 nM |  |  | 101 to 500 nM |
| O=C1c2ccccc2C(=O)N1CCC1=CCN(CCc2ccccc2)CC1 [Example 115] | 1 to 30 nM |  |  | > 500 nM |
| O=C1c2ccccc2C(=O)N1CCCC1=CCN(CCc2ccccc2)CC1 [Example 116] | 31 to 100 nM |  |  | > 500 nM |
| O=C1[C@H]2CC=CC[C@H]2C(=O)N1CC1=CCN(CCc2ccccc2)CC1 [Example 117] | 1 to 30 nM |  |  | > 500 nM |
| O=C1[C@H]2CC=CC[C@H]2C(=O)N1CCCC1=CCN(CCc2ccccc2)CC1 [Example 118] | 1 to 30 nM |  |  | > 500 nM |
| O=C1[C@H]2CCCC[C@H]2C(=O)N1CC1=CCN(CCc2ccccc2)CC1 [Example 119] | 1 to 30 nM |  |  | > 500 nM |
| O=C1[C@H]2CCCC[C@H]2C(=O)N1CCC1=CCN(CCc2ccccc2)CC1 [Example 120] | 1 to 30 nM |  |  | > 500 nM |

Reference: patent publication US5480892A, “(N-phthalimidoalkyl)piperidines” (The Du Pont Merck Pharmaceutical Company, priority 1994, dated 1996)
